According to patent US20230063321A1, “Methods for Treating Inflammatory Bowel Diseases with alpha4beta7 Integrin Antagonists” (Protagonist Therapeutics, Inc., priority 2020, published 2023):
≈ marks a conversion by molar mass, not a printed value. Read-outs that look alike come from different tables or passages of the source. Numbered stars: 1 amine (or outer) side, 2 acyl side, 3 side chain; on linkers, the order of the positions; unused ones are H or OH. Bridge positions count the residues as written; N and C are the ends. Square brackets hold non-standard residues; d marks the D form. Peptide text beside a SMILES is read from it. I, II: the chains in the order shown. ξ: configuration not given here. Phe(4-tBu) = CC(C)(C)c1ccc(C[C@H](N)C(=O)O)cc1; Diglycolyl = O=C(COCC(=O)[*:2])[*:1]; NMeR = CN[C@@H](CCCNC(=N)N)C(=O)O; β3hE = N[C@@H](CCC(=O)O)CC(=O)O; Thr(3ξ) = CC(O)[C@H](N)C(=O)O; X1 = O=C(c1ccccc1C[*:2])[*:1]; Pen = CC(C)(S)[C@H](N)C(=O)O

What was measured:
[1] = target: T1, α4β7 receptor occupancy (Homo sapiens, UniProt P13612+P26010); experiment: Plasma concentration-receptor occupancy relationship, sigmoid Emax (Hill) model; details: in vivo
T1 construct: the amount of α4β7 expression on the cell surface of circulating lymphocytes; endogenous in cells; host or cells: heparinized whole blood of healthy volunteers
T1 sequence (P13612 34-1032): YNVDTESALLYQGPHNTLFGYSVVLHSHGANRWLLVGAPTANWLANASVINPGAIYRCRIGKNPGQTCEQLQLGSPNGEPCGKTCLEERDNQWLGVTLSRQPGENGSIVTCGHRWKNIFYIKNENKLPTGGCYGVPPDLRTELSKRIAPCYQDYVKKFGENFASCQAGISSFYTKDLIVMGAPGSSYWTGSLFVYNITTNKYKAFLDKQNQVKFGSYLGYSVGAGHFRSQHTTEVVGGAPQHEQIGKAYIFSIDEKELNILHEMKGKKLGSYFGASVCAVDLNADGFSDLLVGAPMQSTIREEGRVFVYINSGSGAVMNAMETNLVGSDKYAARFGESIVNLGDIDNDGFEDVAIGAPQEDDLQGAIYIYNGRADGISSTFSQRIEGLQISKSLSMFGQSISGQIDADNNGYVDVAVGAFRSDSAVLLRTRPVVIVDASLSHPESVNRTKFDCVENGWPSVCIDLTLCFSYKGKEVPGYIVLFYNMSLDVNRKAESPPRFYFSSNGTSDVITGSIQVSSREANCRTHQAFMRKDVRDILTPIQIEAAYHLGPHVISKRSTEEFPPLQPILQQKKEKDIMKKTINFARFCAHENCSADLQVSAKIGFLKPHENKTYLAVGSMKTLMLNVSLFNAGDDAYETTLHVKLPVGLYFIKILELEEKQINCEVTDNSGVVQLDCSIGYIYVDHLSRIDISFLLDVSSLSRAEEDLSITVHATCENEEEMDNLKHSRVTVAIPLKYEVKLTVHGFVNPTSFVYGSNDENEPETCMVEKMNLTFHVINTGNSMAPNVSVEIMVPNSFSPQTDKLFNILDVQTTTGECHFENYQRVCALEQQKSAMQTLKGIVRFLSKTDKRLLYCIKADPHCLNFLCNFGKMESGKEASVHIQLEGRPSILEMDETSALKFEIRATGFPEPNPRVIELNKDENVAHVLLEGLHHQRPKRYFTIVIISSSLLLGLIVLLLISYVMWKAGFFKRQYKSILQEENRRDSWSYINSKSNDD
T1 sequence (P26010 20-798): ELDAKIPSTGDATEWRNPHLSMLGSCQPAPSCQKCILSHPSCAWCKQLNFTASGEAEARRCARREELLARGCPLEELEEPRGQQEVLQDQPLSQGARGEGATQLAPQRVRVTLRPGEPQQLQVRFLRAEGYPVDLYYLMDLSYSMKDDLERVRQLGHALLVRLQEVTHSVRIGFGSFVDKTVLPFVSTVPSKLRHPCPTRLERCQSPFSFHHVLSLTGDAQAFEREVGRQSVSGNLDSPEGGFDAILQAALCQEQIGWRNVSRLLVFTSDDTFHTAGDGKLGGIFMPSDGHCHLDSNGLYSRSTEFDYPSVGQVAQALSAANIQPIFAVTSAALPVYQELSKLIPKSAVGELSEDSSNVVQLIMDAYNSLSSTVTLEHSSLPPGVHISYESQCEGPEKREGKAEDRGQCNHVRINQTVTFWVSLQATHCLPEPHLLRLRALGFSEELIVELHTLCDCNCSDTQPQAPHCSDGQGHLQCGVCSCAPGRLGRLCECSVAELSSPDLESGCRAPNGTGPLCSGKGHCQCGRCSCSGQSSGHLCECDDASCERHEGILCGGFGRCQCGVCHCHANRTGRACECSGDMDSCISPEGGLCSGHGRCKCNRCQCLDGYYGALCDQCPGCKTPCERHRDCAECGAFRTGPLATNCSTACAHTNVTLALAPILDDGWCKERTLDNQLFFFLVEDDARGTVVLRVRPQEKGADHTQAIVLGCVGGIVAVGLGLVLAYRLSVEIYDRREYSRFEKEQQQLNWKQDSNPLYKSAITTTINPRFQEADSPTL

[2] = Plasma and tissue exposure after single PO administration; type: in vivo, C57BL/6 female mice; details: single PO 30 mg/kg
Description: Twelve treatment-naïve C57BL/6 female mice were assigned to the study. […] At 1, 3, and 6 hours (h) post-dose, 4 mice/time point were subjected to terminal bleeds and euthanized; Peyer's patches (PPs), mesenteric lymph nodes (MLNs), small intestine, and colon were collected from each animal. The blood was processed to plasma; plasma and the tissue samples were submitted for pharmacokinetic (PK) analysis of Compound A levels using a qualified liquid chromatography tandem mass spectrometry (LC-MS/MS) method.
Processed plasma and tissue samples were analyzed on an AB/MDS Sciex API 4000 mass spectrometer. Positive ions were monitored in the multiple reaction-monitoring (MRM) mode. Quantitation was by peak area ratio.
PK data analysis was carried out using non-compartmental analysis (NCA) in Phoenix WinNonlin 8.1 (Certara USA Inc.). All concentration values below the lower limit of quantitation were treated as zero for the pharmacokinetic analysis. The maximum concentration (Cmax) and the apparent time to Cmax (tmax) were obtained by observation. The area under the concentration versus time curve (AUC) was obtained by the linear trapezoidal method. All concentration data and PK parameters were reported at up to three significant figures if the value was greater than one, and at up to three decimal places if the value was less than one. Time parameters were reported at up to two decimal places. The concentration data were plotted using Excel (Microsoft).

[3] = target: T2, α4β7 / MAdCAM1 (Homo sapiens, UniProt P13612+P26010); experiment: Adhesion of CD4+ T memory cells to MAdCAM1; type: cell-based
T2 construct: endogenous in cells
T2 sequence (P13612 34-1032): as the sequence (P13612 34-1032) above
T2 sequence (P26010 20-798): as the sequence (P26010 20-798) above
Description: After incubation, cells were washed extensively to remove excess peptide. For each reaction, an aliquot of cells was stained for α4β7 expression, while a separate aliquot was tested for adhesion to MAdCAM1.

[4] = Stability of dosing solutions; type: physicochemical; details: 50 mM phosphate buffer pH 7.4, stored at 2-8° C.
Description: Dose solutions were formulated in 50 mM phosphate buffer pH 7.4 and were prepared weekly by a qualified pharmacist.

[5] = target: T3, memory CD4+ T cells expressing α4β7 / recombinant MAdCAM1 (Homo sapiens, UniProt P13612+P26010); experiment: Potency against memory CD4+ T cells expressing α4β7 to recombinant MAdCAM1; type: cell-based; details: cells isolated from human PBMCs
T3 construct: endogenous in cells
T3 sequence (P13612 34-1032): as the sequence (P13612 34-1032) above
T3 sequence (P26010 20-798): as the sequence (P26010 20-798) above

Compound: CC(C)C[C@@H]1NC(=O)[C@H](C(C)O)NC(=O)[C@H](CC(=O)O)NC(=O)[C@H](CO)NC(=O)[C@H](CCCNC(=N)N)N(C)C(=O)c2ccccc2CSC(C)(C)[C@@H](C(=O)N[C@@H](Cc2ccc(C(C)(C)C)cc2)C(=O)N[C@@H](CCC(=O)O)CC(=O)N[C@H](CCCCNC(=O)COCC(=O)NCCCC[C@@H](NC(=O)C[C@H](CCC(=O)O)NC(=O)[C@H](Cc2ccc(C(C)(C)C)cc2)NC(=O)[C@H]2NC(=O)[C@H](CC(C)C)NC(=O)[C@H](C(C)O)NC(=O)[C@H](CC(=O)O)NC(=O)[C@H](CO)NC(=O)[C@H](CCCNC(=N)N)N(C)C(=O)c3ccccc3CSC2(C)C)C(=O)O)C(=O)O)NC1=O (stereo partly drawn) [Compound A, ((2-Benzyl)-(N-Me-R)-Ser-Asp-Thr-Leu-Pen-(Phe(4-tBlu))-(β-homo-Glu)-(D-Lys)-OH)2 (SEQ ID NO: 5) and linker-DIG diglycolic acid] (I: [NMeR]SD[Thr(3ξ)]L[Pen][Phe(4-tBu)][β3hE][dK]-OH / II: [NMeR]SD[Thr(3ξ)]L[Pen][Phe(4-tBu)][β3hE][dK]-OH; linker I:9-II:9 via Diglycolyl; linker I:N-I:6, II:N-II:6 via X1)
- IC50 ([1]; read-out: estimated IC50 for receptor occupancy (converted)): 0.251 nM
- IC80 ([1]; read-out: estimated IC80 for receptor occupancy): 5.9 ng/mL (≈ 2.14 nM)
- Cmax ([2]; female, C57BL/6, mouse, mesenteric lymph nodes, read-out: mean Cmax, MLNs): 56.8 ng/g
- AUC ([2]; female, C57BL/6, mouse, plasma): 95.4 ng·h/mL
- Cmax ([2]; female, C57BL/6, mouse, plasma, read-out: mean Cmax, plasma): 19 ng/mL
- Cmax ([2]; female, C57BL/6, mouse, small intestine, read-out: mean Cmax, small intestine): 13300 ng/g
- mean AUC, MLNs [2]: 226 ng·h/g
- mean AUC, PPs [2]: 37900 ng·h/g
- mean AUC, colon [2]: 15700 ng·h/g
- mean AUC, small intestine [2]: 48600 ng·h/g
- mean Cmax in PPs and colon relative to small intestine [2]: approximately two-fold lower
- time of peak exposure, MLNs [2]: 1 h
- time of peak exposure, PPs [2]: 1 h
- time of peak exposure, colon [2]: 6 h
- time of peak exposure, plasma [2]: 3 h
- time of peak exposure, small intestine [2]: 1 h
- Maximal adhesion reduction (%) ([3]; Donor 1, normalized to no-peptide control): 38%
- Maximal adhesion reduction (%) ([3]; Donor 2, normalized to no-peptide control): 36%
- Maximal adhesion reduction (%) ([3]; Mean of two donors): 37%
- R-squared, α4β7 expression reduction vs adhesion reduction ([3]; first donor): 0.968
- R squared, α4β7 expression reduction vs adhesion reduction ([3]; second donor): 0.940
- Complete Mayo Score, Adapted Mayo Score, and/or Partial Mayo Score vs placebo (450 mg BID or 150 mg BID): statistically significant improvement
- safety of treatment (in vivo): safe
- dosing solutions demonstrated to be stable [4]: 3 months
- IC50 [5]: 0.265 nM
